Key:
Format in all cases: in vivo
[1] = tested on: Eleusine indica; experiment: Experiment 2: glasshouse experiment, seedlings at 4-leaf stage, percentage phytotoxicity after 19 days
Experimental: Agricultural surfactant - nonylphenol ethylene oxide condensate containing 9 moles ethylene oxide (in a commercial composition) was added to all spray dilutions to give 0.2% v/v concentration. […] The ED50 values were as follows:- The results were then used to plot an isobole with a "two-sided effect" according to the methods of […] op. cit. The isobole produced, shown hereinafter in Figure 1 was clearly a type III curve ([…]., page 75), characteristic of synergism.

[2] = tested on: Amaranthus retroflexus; experiment: Experiment 3: glasshouse, post-emergence, fresh weight after 19 days, % inhibition of growth; conditions: for inhibition at 8 g/ha / inhibition at 16 g/ha / inhibition at 31 g/ha / inhibition at 63 g/ha / inhibition at 125 g/ha: Amaranthus retroflexus, post-emergence; for inhibition at 8 g/ha: Atrazine 8 g/ha alone; for inhibition at 16 g/ha: Atrazine 16 g/ha alone; for inhibition at 31 g/ha: Atrazine 31 g/ha alone; for inhibition at 63 g/ha: Atrazine 63 g/ha alone; for inhibition at 125 g/ha: Atrazine 125 g/ha alone; for ED₉₀: Atrazine alone
Experimental: (§1) A series of experiments was carried out to determine the nature of the biological interaction between atrazine and five compounds of general formula I on a range of weed species. […] The growth stages of the plants at spraying are also presented with the results. Agricultural surfactant (nonyl phenol ethylene oxide condensate containing 9 moles ethylene oxide marketed as 'Agral') was added to all spray dilutions to give 0.2% v/v concentration. […] After 19 days the fresh weight of vegetation in each pot was determined. […] E = […]00003:character} where E, X and Y are percentage inhibition of growth. In addition, the ED50 or ED90 values (the application rates giving 50% or 90% inhibition of growth, respectively) were calculated from the results for the piperidinedione alone and with increasing rates of atrazine.

[3] = tested on: Bidens pilosa; experiment: as above; conditions: 2 leaves
Experimental: as §1

[4] = tested on: Brassica kaber; experiment: as above; conditions: for ED₅₀ / ED₉₀: Atrazine alone; for inhibition at 8 g/ha / inhibition at 16 g/ha / inhibition at 31 g/ha / inhibition at 63 g/ha: Mutarda arvensis, post-emergence; for inhibition at 8 g/ha: Atrazine 8 g/ha alone; for inhibition at 16 g/ha: Atrazine 16 g/ha alone; for inhibition at 31 g/ha: Atrazine 31 g/ha alone; for inhibition at 63 g/ha: Atrazine 63 g/ha alone
Experimental: as §1

Structure (SMILES): CCNc1nc(Cl)nc(NC(C)C)n1 [Atrazine, 2-chloro-4-ethylamino-6-isopropylamino-1,3,5-triazine]
- percentage phytotoxicity ([1]; Atrazine 125 g/ha alone): 2%
- percentage phytotoxicity ([1]; Atrazine 250 g/ha alone): 13%
- percentage phytotoxicity ([1]; Atrazine 500 g/ha alone): 17%
- percentage phytotoxicity ([1]; Atrazine 1000 g/ha alone): 43%
- ED₅₀ ([1]; Atrazine alone, 50% phytotoxicity): 1193 g/ha
- inhibition at 8 g/ha ([2]; 2-4 leaves, Table 4): 8%
- inhibition at 8 g/ha ([2]; 2 leaves, Table 1): 36%
- inhibition at 8 g/ha ([2]; 2 leaves, Table 5): 0%
- inhibition at 16 g/ha ([2]; 2-4 leaves, Table 4): 26%
- inhibition at 16 g/ha ([2]; 2 leaves, Table 1): 58%
- inhibition at 16 g/ha ([2]; 2 leaves, Table 5): 58%
- inhibition at 31 g/ha ([2]; 2-4 leaves, Table 4): 39%
- inhibition at 31 g/ha ([2]; 2 leaves, Table 1): 81%
- inhibition at 31 g/ha ([2]; 2 leaves, Table 5): 85%
- inhibition at 63 g/ha ([2]; 2-4 leaves, Table 4): 56%
- inhibition at 63 g/ha ([2]; 2 leaves, Table 1): 88%
- inhibition at 63 g/ha ([2]; 2 leaves, Table 5): 71%
- inhibition at 125 g/ha ([2]; 2-4 leaves, Table 4): 96%
- inhibition at 125 g/ha ([2]; 2 leaves, Table 1): 95%
- inhibition at 125 g/ha ([2]; 2 leaves, Table 5): 99%
- ED₉₀ ([2]; 2-4 leaves, Table 4): ED₉₀(g/ha) 105.79
- ED₉₀ ([2]; 2 leaves, Table 1): ED₉₀(g/ha) 68.57
- ED₉₀ ([2]; 2 leaves, Table 5): ED₉₀(g/ha) 53
- ED₅₀ ([3]; Atrazine alone): ED₅₀(g/ha)63.17
- inhibition at 8 g/ha ([3]; Bidens pilosa, post-emergence, Atrazine 8 g/ha alone): 0%
- inhibition at 16 g/ha ([3]; Bidens pilosa, post-emergence, Atrazine 16 g/ha alone): 0%
- inhibition at 31 g/ha ([3]; Bidens pilosa, post-emergence, Atrazine 31 g/ha alone): 5%
- inhibition at 63 g/ha ([3]; Bidens pilosa, post-emergence, Atrazine 63 g/ha alone): 46%
- inhibition at 125 g/ha ([3]; Bidens pilosa, post-emergence, Atrazine 125 g/ha alone): 92%
- ED₅₀ ([4]; 2-3 leaves, Table 4): ED₅₀(g/ha) 88.39
- ED₉₀ ([4]; 2 leaves, Table 5): ED₉₀(g/ha) 77
- ED₉₀ ([4]; 2 leaves, Table 6): ED₉₀(g/ha) 62.14
- ED₅₀ ([4]; 2 leaves, Table 7): ED₅₀(g/ha) 78.24
- inhibition at 8 g/ha ([4]; 2-3 leaves, Table 4): 16%
- inhibition at 8 g/ha ([4]; 2 leaves, Table 5): 0%
- inhibition at 8 g/ha ([4]; 2 leaves, Table 6): 0%
- inhibition at 8 g/ha ([4]; 2 leaves, Table 7): 0%
- inhibition at 16 g/ha ([4]; 2-3 leaves, Table 4): 5%
- inhibition at 16 g/ha ([4]; 2 leaves, Table 5): 21%
- inhibition at 16 g/ha ([4]; 2 leaves, Table 6): 35%
- inhibition at 16 g/ha ([4]; 2 leaves, Table 7): 0%
- inhibition at 31 g/ha ([4]; 2-3 leaves, Table 4): 19%
- inhibition at 31 g/ha ([4]; 2 leaves, Table 5): 42%
- inhibition at 31 g/ha ([4]; 2 leaves, Table 6): 41%
- inhibition at 31 g/ha ([4]; 2 leaves, Table 7): 17%
- inhibition at 63 g/ha ([4]; 2-3 leaves, Table 4): 30%
- inhibition at 63 g/ha ([4]; 2 leaves, Table 5): 60%
- inhibition at 63 g/ha ([4]; 2 leaves, Table 6): 91%
